According to US20100267561A1, “HERBICIDAL PYRIDAZINONE DERIVATIVES” (priority 2007, published 2010):

Tests used:
Assay type in all cases: in vivo
[1] = tested on: broadleaf signalgrass (Brachiaria platyphylla); assay: Test E pre-/postemergence plant response; details: scale 0 to 100
Procedure, shortened: (§1)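 Ratings of 0 (no effect) through 100 (complete control) came from visual evaluation against untreated plants after a 14- to 21-day greenhouse period. Compound in a non-phytotoxic solvent/surfactant mixture was applied preemergence to seeds and postemergence to plants at the 1- to 4-leaf stage.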

[2] = tested on: Italian ryegrass (Lolium multiflorum); assay: Test E pre-/postemergence plant response; details: scale 0 to 100
Procedure, shortened: as §1

[3] = tested on: guineagrass (Panicum maximum); assay: Test E pre-/postemergence plant response; details: scale 0 to 100
Procedure, shortened: as §1

[4] = tested on: itchgrass (Rottboellia cochinchinensis); assay: Test E pre-/postemergence plant response; details: scale 0 to 100
Procedure, shortened: as §1

[5] = tested on: purple nutsedge (Cyperus rotundus); assay: Test E pre-/postemergence plant response; details: scale 0 to 100
Procedure, shortened: as §1

[6] = tested on: common mallow (Malva sylvestris); assay: Test E pre-/postemergence plant response; details: Postemergence, scale 0 to 100
Procedure, shortened: as §1

[7] = tested on: naked crabgrass (Digitaria nuda); assay: Test E pre-/postemergence plant response; details: scale 0 to 100
Procedure, shortened: as §1

[8] = tested on: pitted morningglory (Ipomoea lacunosa); assay: Test E pre-/postemergence plant response; details: scale 0 to 100
Procedure, shortened: as §1

[9] = tested on: annual bluegrass (Poa annua); assay: Test E pre-/postemergence plant response; details: scale 0 to 100
Procedure, shortened: as §1

[10] = tested on: Italian ryegrass (Lolium multiflorum); assay: Test C pre-/postemergence plant response
Procedure, shortened: (§2)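 Application timings covered preemergence and postemergence (1- to 4-leaf plants, 2 to 18 cm), using a non-phytotoxic solvent mixture that included a surfactant. Controlled-environment holding lasted 15 to 25 days before visual scoring, where 100 denotes complete control and 0 no effect.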

[11] = tested on: winter barley (Hordeum vulgare); assay: Test C pre-/postemergence plant response
Procedure, shortened: as §2

[12] = tested on: spring wheat (Triticum aestivum); assay: Test C pre-/postemergence plant response
Procedure, shortened: as §2

[13] = Postemergence, 8 g ai/ha, scale 0 to 100, 0 no effect, 100 complete control
[14] = Postemergence, 16 g ai/ha, scale 0 to 100, 0 no effect, 100 complete control
[15] = Postemergence, 31 g ai/ha, scale 0 to 100, 0 no effect, 100 complete control
[16] = Postemergence, 62 g ai/ha, scale 0 to 100, 0 no effect, 100 complete control
[17] = Preemergence, 8 g ai/ha, scale 0 to 100 (0 no effect, 100 complete control)
[18] = Preemergence, 16 g ai/ha, scale 0 to 100 (0 no effect, 100 complete control)
[19] = Preemergence, 31 g ai/ha, scale 0 to 100 (0 no effect, 100 complete control)
[20] = Preemergence, 62 g ai/ha, scale 0 to 100, 0 no effect, 100 complete control

## CCc1cc(-c2ccc(C(F)(F)F)cc2)nn1-c1c(O)cnn(C)c1=O [Compound 11, 4-[5-ethyl-3-[4-(trifluoromethyl)phenyl]-1H-pyrazol-1-yl]-5-hydroxy-2-methyl-3(2H)-pyridazinone]
[1]; 4 g ai/ha, Postemergence
  Plant response rating, Signalgrass: 90
[1]; 16 g ai/ha, Preemergence
  Plant response rating, Signalgrass: 90
[1]; 31 g ai/ha, Preemergence
  Plant response rating, Signalgrass: 100
[1]; Postemergence, 8 g ai/ha
  Plant response rating, Signalgrass: 90
[1]; Postemergence, 16 g ai/ha
  Plant response rating, Signalgrass: 90
[1]; Postemergence, 31 g ai/ha
  Plant response rating, Signalgrass: 100
[1]; Preemergence, 4 g ai/ha
  Plant response rating, Signalgrass: 0
[2]; 4 g ai/ha, Postemergence
  Plant response rating, Ryegrass, Italian: 75
[2]; 16 g ai/ha, Preemergence
  Plant response rating, Ryegrass, Italian: 80
[2]; 31 g ai/ha, Preemergence
  Plant response rating, Ryegrass, Italian: 100
[2]; Postemergence, 8 g ai/ha
  Plant response rating, Ryegrass, Italian: 90
[2]; Postemergence, 16 g ai/ha
  Plant response rating, Ryegrass, Italian: 95
[2]; Postemergence, 31 g ai/ha
  Plant response rating, Ryegrass, Italian: 95
[2]; Preemergence, 4 g ai/ha
  Plant response rating, Ryegrass, Italian: 20
[3]; 4 g ai/ha, Postemergence
  Plant response rating, Guineagrass: 90
[3]; 16 g ai/ha, Preemergence
  Plant response rating, Guineagrass: 98
[3]; 31 g ai/ha, Preemergence
  Plant response rating, Guineagrass: 98
[3]; Postemergence, 8 g ai/ha
  Plant response rating, Guineagrass: 95
[3]; Postemergence, 16 g ai/ha
  Plant response rating, Guineagrass: 98
[3]; Postemergence, 31 g ai/ha
  Plant response rating, Guineagrass: 98
[3]; Preemergence, 4 g ai/ha
  Plant response rating, Guineagrass: 0
[4]; 4 g ai/ha, Postemergence
  Plant response rating, Itchgrass: 0
[4]; 16 g ai/ha, Preemergence
  Plant response rating, Itchgrass: 65
[4]; 31 g ai/ha, Preemergence
  Plant response rating, Itchgrass: 80
[4]; Postemergence, 8 g ai/ha
  Plant response rating, Itchgrass: 75
[4]; Postemergence, 16 g ai/ha
  Plant response rating, Itchgrass: 85
[4]; Postemergence, 31 g ai/ha
  Plant response rating, Itchgrass: 98
[4]; Preemergence, 4 g ai/ha
  Plant response rating, Itchgrass: 0
[5]; 4 g ai/ha, Postemergence
  Plant response rating, Nutsedge, Purple: 0
[5]; 16 g ai/ha, Preemergence
  Plant response rating, Nutsedge, Purple: 0
[5]; 31 g ai/ha, Preemergence
  Plant response rating, Nutsedge, Purple: 0
[5]; Postemergence, 8 g ai/ha
  Plant response rating, Nutsedge, Purple: 0
[6]; 4 g ai/ha
  Plant response rating, Mallow: 0
[6]; 8 g ai/ha
  Plant response rating, Mallow: 0
[6]; 16 g ai/ha
  Plant response rating, Mallow: 0
[6]; 31 g ai/ha
  Plant response rating, Mallow: 0
[7]; 4 g ai/ha, Postemergence
  Plant response rating, Crabgrass, Naked: 25
[7]; 8 g ai/ha, Preemergence
  Plant response rating, Crabgrass, Naked: 40
[7]; 16 g ai/ha, Preemergence
  Plant response rating, Crabgrass, Naked: 95
[7]; 31 g ai/ha, Preemergence
  Plant response rating, Crabgrass, Naked: 100
[7]; Postemergence, 8 g ai/ha
  Plant response rating, Crabgrass, Naked: 90
[7]; Postemergence, 16 g ai/ha
  Plant response rating, Crabgrass, Naked: 95
[7]; Postemergence, 31 g ai/ha
  Plant response rating, Crabgrass, Naked: 98
[8]; 4 g ai/ha, Postemergence
  Plant response rating, Morningglory: 0
[8]; 16 g ai/ha, Preemergence
  Plant response rating, Morningglory: 0
[8]; 31 g ai/ha, Preemergence
  Plant response rating, Morningglory: 0
[8]; Postemergence, 8 g ai/ha
  Plant response rating, Morningglory: 0
[8]; Postemergence, 16 g ai/ha
  Plant response rating, Morningglory: 0
[8]; Postemergence, 31 g ai/ha
  Plant response rating, Morningglory: 0
[8]; Preemergence, 4 g ai/ha
  Plant response rating, Morningglory: 0
[9]; 4 g ai/ha, Postemergence
  Plant response rating, Bluegrass: 0
[9]; 8 g ai/ha, Preemergence
  Plant response rating, Bluegrass: 0
[9]; 16 g ai/ha, Preemergence
  Plant response rating, Bluegrass: 0
[9]; 31 g ai/ha, Preemergence
  Plant response rating, Bluegrass: 0
[9]; Postemergence, 8 g ai/ha
  Plant response rating, Bluegrass: 0
[9]; Postemergence, 16 g ai/ha
  Plant response rating, Bluegrass: 0
[9]; Postemergence, 31 g ai/ha
  Plant response rating, Bluegrass: 0
[9]; Preemergence, 4 g ai/ha
  Plant response rating, Bluegrass: 0
[10]; [13]
  Plant response rating, Ryegrass, Italian: 98
[10]; [14]
  Plant response rating, Ryegrass, Italian: 98
[10]; [15]
  Plant response rating, Ryegrass, Italian: 100
[10]; [16]
  Plant response rating, Ryegrass, Italian: 100
[10]; [17]
  Plant response rating, Ryegrass, Italian: 85
[10]; [18]
  Plant response rating, Ryegrass, Italian: 98
[10]; [19]
  Plant response rating, Ryegrass, Italian: 100
[10]; [20]
  Plant response rating, Ryegrass, Italian: 100
[11]; [13]
  Plant response rating, Barley, Winter: 60
[11]; [14]
  Plant response rating, Barley, Winter: 70
[11]; [15]
  Plant response rating, Barley, Winter: 95
[11]; [16]
  Plant response rating, Barley, Winter: 100
[11]; [17]
  Plant response rating, Barley, Winter: 20
[11]; [18]
  Plant response rating, Barley, Winter: 40
[11]; [19]
  Plant response rating, Barley, Winter: 75
[11]; [20]
  Plant response rating, Barley, Winter: 95
[12]; [13]
  Plant response rating, Wheat, Spring: 65
[12]; [14]
  Plant response rating, Wheat, Spring: 90
[12]; [15]
  Plant response rating, Wheat, Spring: 98
[12]; [16]
  Plant response rating, Wheat, Spring: 98
[12]; [17]
  Plant response rating, Wheat, Spring: 50
[12]; [18]
  Plant response rating, Wheat, Spring: 60
[12]; [19]
  Plant response rating, Wheat, Spring: 75
[12]; [20]
  Plant response rating, Wheat, Spring: 100
